Key:
peritoneal macrophages [1] = assay: qPCR in peritoneal macrophages co-cultured with 344SQR cells (transwell) with follistatin or K02288; format: cell-based, mouse; conditions: 344SQR co-culture plus K02288 compared with 344SQR only (FIG. 3F)
RAW 264.7 cells [2] = assay: qPCR in RAW 264.7 cells co-cultured with 344SQR cells (transwell) with follistatin or K02288; format: cell-based, murine; conditions: 344SQR co-culture plus K02288 compared with 344SQR only (FIG. 3E)
Text: (§1) Quantitative polymerase chain reaction (qPCR). Total RNA was isolated from cells and tumors with Triazol (Life Technologies) according to the manufacturer's protocol. For studies of BMP7, p38α, IL-1α, IL-1β, TNF-α, RANTES, IL-2, and IFN-γ expression, mRNA was retrotranscribed with the iScript™ gDNA Clear cDNA Synthesis Kit (BioRad) and analyzed by qPCR using SYBR Green (Life Technologies) with specific primers according to the manufacturer's protocol. The comparative Ct method was used to calculate the relative abundance of mRNAs compared with ACTB (beta-actin) expression for cancer cells or CD45 expression for immune cells.
Co-culture experiments and treatments. Viable cells were counted with a hemocytometer (0.4% Trypan blue solution) and diluted to 40,000 cells per well in 24-wells plates. Cells from 344SQP, 344SQR, 344SQ ctrl, or 344SQ-shBMP7 tumors were seeded at the top inserts (24-mm Transwell with 0.4-μm pore polycarbonate membrane insert, Sigma-Aldrich), and RAW 264.7 or CD4^+ T cells were seeded at the bottom of the transwell system. […] RNA was then isolated from RAW 264.7 or CD4^+ T cells and analyzed for p38α, IL-1α, IL-1β, TNF-α, RANTES, IL-2 and IFN-γ expression with qPCR. […]

T-cell = conditions: Crawley et al., 1997; cited from earlier work
T lymphocytes = conditions: Matsuda et al., 1998; cited from earlier work
344SQR shBMP7 tumors = assay: Tumor growth, survival and TIL flow cytometry of mice with 344SQR shBMP7 (BMP7-knockdown) tumors treated with checkpoint antibodies; format: in vivo, 129Sv/Ev mice; conditions: antibody 10 mg/kg twice a week for 2 weeks in combination with BMP7 knockdown, compared with control (FIGS. 5A, 5I, 5J)
Method: In vivo studies. All mouse studies were approved by the Institutional Animal Care and Use Committee (IACUC) of The University of Texas MD Anderson Cancer Center before their initiation; animal care was provided according to IACUC standards, and all mice had been bred and were maintained in our own specific pathogen-free mouse colony. For RRBS, RPPA and TILs studies, primary tumors were established by subcutaneous injection of 344SQP or 344SQR cells (0.5×10^6 in 100 μL of sterile phosphate buffered saline [PBS]) into the leg of syngeneic 129Sv/Ev mice (female, 12-16 weeks old). Mice were then given intraperitoneal injections of anti-PD1 or control IgG antibodies (10 mg/kg) (Bio X cell), starting on day 4 after tumor cell inoculation and continuing twice per week for a total of 4 doses. At 24 hours after the last anti-PD1 treatment, tumor tissues were collected for DNA (2 mice/group) and protein isolation (2 or 3 mice/group). For TILs isolation, tumor tissues (3 mice/group) were collected a week after the last treatment with anti-PD1. […] Tumors were measured with calipers three times per week and recorded as tumor volume (in mm^3)=width^2×length/2. […] Mouse survival rates were analyzed by using the Kaplan-Meier method and compared with log-rank tests.
Tissue processing and flow cytometry. […] All samples were analyzed with an LSRII flow cytometer and FlowJo software (version 10.0.7). […]

peritoneal macrophages [3] = assay: qPCR of p38α, IL-1α, IL-1β, TNF-α, RANTES in peritoneal macrophages treated with BMP7 or BMP7 plus follistatin; format: cell-based, mouse; conditions: BMP7 compared to untreated control (FIG. 3G)
Text: as §1
(§2) Co-culture experiments and treatments. Viable cells were counted with a hemocytometer (0.4% Trypan blue solution) and diluted to 40,000 cells per well in 24-wells plates. Cells from 344SQP, 344SQR, 344SQ ctrl, or 344SQ-shBMP7 tumors were seeded at the top inserts (24-mm Transwell with 0.4-μm pore polycarbonate membrane insert, Sigma-Aldrich), and RAW 264.7 or CD4^+ T cells were seeded at the bottom of the transwell system. […] RNA was then isolated from RAW 264.7 or CD4^+ T cells and analyzed for p38α, IL-1α, IL-1β, TNF-α, RANTES, IL-2 and IFN-γ expression with qPCR.

RAW 264.7 cells [4] = assay: qPCR of p38α, IL-1α, IL-1β, TNF-α, RANTES in RAW 264.7 cells treated with BMP7 or BMP7 plus follistatin; format: cell-based, murine; conditions: BMP7 compared to untreated control, 24 or 48 hours (FIG. 3G)
Text: as §1, §2

CD4^+ T cells = assay: qPCR of p38α, IFN-γ, IL-2 in activated CD4+ T cells treated with BMP7 or BMP7 plus follistatin; format: cell-based, mouse
Text: as §1
Co-culture experiments and treatments. Viable cells were counted with a hemocytometer (0.4% Trypan blue solution) and diluted to 40,000 cells per well in 24-wells plates. Cells from 344SQP, 344SQR, 344SQ ctrl, or 344SQ-shBMP7 tumors were seeded at the top inserts (24-mm Transwell with 0.4-μm pore polycarbonate membrane insert, Sigma-Aldrich), and RAW 264.7 or CD4^+ T cells were seeded at the bottom of the transwell system. CD4^+ T cells were isolated from splenocytes by using Dynabeads Untouched Mouse CD4 Cells Kit (Thermo Fisher Scientific—Life Technologies, Catalog #11416D) and activated with LEAF purified anti-mouse CD3c antibody (5 μg/mL) and LEAF purified anti-mouse CD28 antibody (1 μg/mL) (Biolegend). […] RNA was then isolated from RAW 264.7 or CD4^+ T cells and analyzed for p38α, IL-1α, IL-1β, TNF-α, RANTES, IL-2 and IFN-γ expression with qPCR.
Next, CD4^+ T cells were co-cultured with 344SQP or 344SQR cells, and 344SQR ctrl or 344SQR shBMP7 cells, and the expression of p38α, IFN-γ, and IL-2 analyzed. […] To confirm that these findings depended on BMP7 and not on some other secreted molecule, CD4^+ T cells were treated with BMP7 with or without follistatin and p38α, IFN-γ, and IL-2 expression evaluated. […]

RAW 264.7 cells [5] = assay: p38a silencing with siRNAs in RAW 264.7 cells, qPCR / expression analysis; format: cell-based, murine; conditions: BMP7 treatment of cells treated with siRNAs targeting p38a (FIG. 3K)
Text: as §1
Transfection siRNA. siRNA targeting p38a (Life Technologies, Cat #4390771) and its respective negative-control negative control (Life Technologies, Cat #4390843) were reverse-transfected into RAW 264.7 macrophages with Lipofectamine 2000 (Life Technologies) to a final concentration of […].

In the case of `COc1cc(-c2cc(-c3cccc(O)c3)cnc2N)cc(OC)c1OC` [K02288, reference compound], the “expression of p38a and p38α-regulated cytokines and chemokines” value (peritoneal macrophages [1]) is reported as “lower expression” and the “expression of p38a and p38α-regulated cytokines and chemokines” value (RAW 264.7 cells [2]) is reported as “lower expression”.

In the case of `C[S+]([O-])c1ccc(-c2nc(-c3ccncc3)c(-c3ccc(F)cc3)[nH]2)cc1` (stereo not shown) [SB203580], the “T-cell proliferation in response to IL-2” value (T-cell) is listed as “suppressed T-cell proliferation” and the “transcriptional activation of the IL-2 promoter” value (T lymphocytes) is listed as “suppressed the transcriptional activation”.

With “anti-PDL1: anti-PDL1 (Durvalumab, Pharmacy MD Anderson)” the survival (344SQR shBMP7 tumors) was “increased survival”.

B1: BMP7: bone morphogenetic protein (BMP)-7, secreted protein of the TGF-β superfamily (R&D Systems, Catalog #5666-BP-010) (protein, UniProt P18075 293-431, looked up)
Bone morphogenetic protein 7: STGSKQRSQNRSKTPKNQEALRMANVAENSSSDQRQACKKHELYVSFRDLGWQDWIIAPEGYAAYYCEGECAFPLNSYMNATNHAIVQTLVHFINPETVPKPCCAPTQLNAISVLYFDDSSNVILKKYRNMVVRACGCH
In the case of B1, the “expression of p38a and p38α-regulated cytokines and chemokines” value (peritoneal macrophages [3]) is reported as “lower expression”, the “expression of p38a and p38α-regulated cytokines and chemokines” value (RAW 264.7 cells [4]) is reported as “lower expression” and the p38α expression (CD4^+ T cells; effect of BMP7) is reported as “led to changes”. For the same molecule, the “IFN-γ and IL-2 expression” value (CD4^+ T cells; effect of BMP7, via p38α) was “decreased” and the “expression of TNF-α, IL1-β, and CD206” value (RAW 264.7 cells [5]) was “did not alter”.
